Experimental findings from ChEMBL document CHEMBL1151648, “The Sesquiterpenes of Lactarius vellereus and Their Role in a Proposed Chemical Defense System” (J Nat Prod, 1985) are described below.

Holding throughout (assay type): functional
Assay [1] relates to Candida albicans. Description: Antimicrobial activity against Candida albicans by Kirby-Bauer growth inhibition assay.
For assay [2], the system named is Escherichia coli. The assay is described as follows: Antimicrobial activity against Escherichia coli by Kirby-Bauer growth inhibition assay.
Assay [3] relates to Micrococcus luteus. Description: Antimicrobial activity against Micrococcus luteus by Kirby-Bauer growth inhibition assay.

Consider `C[C@H]1C=C(C=O)C(CO)=C[C@@H]2CC(C)(C)C[C@@H]21` [VELLEROL], for which the values for the Activity in assay [1], in assay [2] and in assay [3] were 100 µg, more than 1000 µg and 300 µg, respectively.

Turning to `CC1(C)C[C@H]2C=C3COC(O)[C@]34C[C@]4(C)[C@H]2C1` (stereo not given in full) [ISOVELLEROL], the Activity in assay [1] was 50 µg; in assay [2], more than 1000 µg; in assay [3], 300 µg.

For `CC1(C)C[C@H]2C=C(C=O)[C@]3(C=O)C[C@]3(C)[C@H]2C1` [ISOVELLERAL], the Activity in assay [1] was determined as 2 µg; in assay [2], 15 µg; in assay [3] it was 2 µg.

Regarding `C[C@H]1C=C(C=O)C(C=O)=C[C@@H]2CC(C)(C)C[C@@H]21` [LACTARANE], the Activity in assay [1] worked out at 2 µg; in assay [2] it was 50 µg; in assay [3], 15 µg.

For the molecule `C[C@H]1C=C(CO)C(CO)=C[C@@H]2CC(C)(C)C[C@@H]21` [VELLERDIOL], the Activity in assay [1], in assay [2] and in assay [3] was more than 1000 µg each time.
